What all share (test): NCI-60 cell line screen, 48 h
In assay [1] the test system is BT-549 breast.
Assay [2] concerns HCT-116 colon.
Assay [3] deals with MALME-3M melanoma.
Assay [4] deals with MCF7 breast.
Assay [5] concerns NCI-H226 lung.
Assay [6] deals with NCI-H460 lung.
Assay [7] relates to NCI-H522 lung.
Assay [8] deals with OVCAR-8 ovarian.
The test system of assay [9] is SF-295 CNS.
Assay [10] concerns SF-539 CNS.

Structures are written as SMILES.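 Values below derive from 48-hour exposures of cells grown in 96-well plates, with endpoints linearly interpolated between the two concentrations bracketing the appropriate inhibition level. Here, GI50 denotes the concentration required for 50% inhibition of growth. TGI is the concentration that stops growth completely.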 A value given as a limit tells only on which side of the number the result lay.

`COC(=O)c1c2c(c[n+]([O-])c1C)C(=O)C(NCc1ccccc1)=CC2=O`: the GI50 in assay [1] is 1.19 µM; in assay [2], 0.269 µM; in [3] it was 0.127 µM; in [4] it was 0.224 µM; in [5] it was 1.23 µM; in [6], 0.425 µM. For the same compound, the GI50 was 0.31 µM in assay [7], 0.311 µM in assay [8], 0.885 µM in assay [9] and 0.457 µM in [10]. For the same compound, the TGI came to 2.54 µM in [1]; 0.924 µM in [2]; 0.294 µM in [3]; 0.726 µM in assay [4]; 2.84 µM in assay [5]; 1.65 µM in assay [6]. Further, the TGI in assay [7] came to 1.57 µM; in assay [8], 1.16 µM; in assay [9], 2.15 µM; in [10], 1.67 µM.
As for `O=C(Nc1cccc(-n2cc(-c3ccncc3)c(-c3cc(O)cc(Cl)c3)n2)c1)Nc1ccc(Cl)c(Cl)c1`, the GI50 in [1] is 2.06 µM; in assay [2], 1.74 µM; in [3], 1.8 µM; in [4] it was 2.8 µM; in [5] it was 2.28 µM; in assay [6], 2.18 µM. Moreover, the GI50 in [7] is 1.1 µM; in assay [8] it was 2.02 µM; in [9], 1.7 µM; in assay [10] it was 1.44 µM. Besides, the TGI in assay [1] turned out to be 5.22 µM; in assay [2], 4.1 µM; in assay [3] it was 5.48 µM; in [4], 9.75 µM; in [5] it was 7.16 µM; in [6], 6.14 µM. The TGI in [7] came to 3.14 µM; in assay [8], 5.06 µM; in assay [9], 4.6 µM; in assay [10] it was 3.27 µM.
For `COc1ccccc1/C=C1\CCC(CN(C)C)C1=O` (stereo not given), the TGI in [1] stood at 28.1 µM; in assay [2], 18.1 µM; in assay [3], 16.2 µM; in assay [4], 5.87 µM; in assay [5], 25 µM; in [6], 44.5 µM. For the same compound, the TGI in assay [7] came to 3.56 µM; in [8], 26.3 µM; in assay [9] it was 29.7 µM; in assay [10], 27.2 µM.
As to `O=Cc1ncc(-c2ccc(C(F)(F)F)cc2)c(NC2CCCCCC2)n1`, the GI50 in assay [1], in assay [2], in [3], in assay [4], in assay [5] and in assay [6] was over 10 µM throughout. For the same compound, the GI50 in [7], in [8], in assay [9] and in assay [10] was over 10 µM in each case. The TGI in [1], in assay [2], in assay [3], in assay [4], in assay [5] and in assay [6] was over 10 µM in each case. Besides, the TGI in [7], in assay [8], in assay [9] and in [10] was over 10 µM throughout.
`CC(/C=C/C=C/C=C/C=C/C=C/C(O)=C1/C(=O)C(CCC(=O)O)N(C)C1=O)=C\C(C)C(OC1CC(O)C(O)C(C)O1)C(C)C` (stereo not given): the TGI in assay [1] is 7.1 µM; in [2], 7.15 µM; in assay [3], 8.4 µM; in assay [4], 33.6 µM; in [5] it was 11.8 µM; in assay [6] it was 10.1 µM. The TGI was found to be 7.35 µM in assay [7], 15.1 µM in [8], 14.8 µM in [9] and 6.3 µM in [10].
For the compound `CC(C)Cc1ccc(C(C)/C=C2\CCC(CN3CCOCC3)C2=O)cc1` (stereo not given), the TGI in assay [1] worked out at 35.2 µM; in assay [2] it was 18.7 µM; in assay [3] it was 32 µM; in assay [4] it was 19.9 µM; in assay [5], 35.5 µM; in assay [6], 33.8 µM. Also, the TGI in assay [7] is 15.4 µM; in assay [8], 12.3 µM; in assay [9], 29.3 µM; in [10] it was 19.8 µM.
On to `Clc1ccc(-c2nc(-c3c[nH]c4ncccc34)cs2)cc1`, for which the GI50 in assay [1] is over 100 µM; in assay [2] it was 52.9 µM; in assay [3], over 100 µM; in [4], over 100 µM; in [5], over 100 µM; in [6], over 100 µM. In addition, the GI50 is over 100 µM in [7], over 100 µM in [8], over 100 µM in [9] and 35.7 µM in assay [10]. The TGI in assay [1], in assay [2], in assay [3], in [4], in assay [5] and in assay [6] was over 100 µM throughout. The TGI in assay [7], in assay [8], in assay [9] and in [10] was over 100 µM throughout.

For the origin of these results see PubChem BioAssay (NCI).
